Experiments:
[1] = system: hearing loss induced by PTZ in guinea pigs; experiment: ABR (auditory) threshold in PTZ-induced epilepsy; type: in vivo, guinea pig
Experimental: (§1) Experiments were performed in pigmented adult male guinea pigs initially weighing 349±38 g. ABRs recordings were used to evaluate the hearing status of each animal and EEG recordings to evaluate changes in cortical excitability. The ABR and EEG recordings were obtained following a method that we have previously reported (Nekrassov and Sitges, 2003). The Institutional Animal Use and Care Committee approved all experimental procedures.
(§2) Three types of recordings were performed in the anaesthetized animals, namely the ABR recordings elicited by a stimulus of high intensity (100 dB), the ABR recordings for determination of the auditory threshold and the EEG recordings.
(§3) Determination of ABR thresholds. ABR recordings elicited by stimuli of progressively lower intensity (in dB) were used for determining the hearing threshold. Threshold is defined as the lowest stimulus intensity (in dB) at which the P3 wave of the ABR could still be recorded in three consecutive trials.
(§4) Student's t-test was used for the evaluation of the differences between results obtained before and at the specified times after the injection of the convulsing agents. The criterion for statistical significance for all measures was P≦0.05. All data are expressed as means±standard error of the mean. In figures and tables the symbol * is used for indicating statistic significant differences.
(§5) Eight male guinea pigs were entered into this study. PTZ was dissolved in saline and vinpocetine in a saline acidified (with HCl) adjusted to pH 4 (with NaOH). Four hours after injecting guinea pigs with vehicle (acidified saline used to dissolve vinpocetine) the animals were anaesthetized and a first set of ABR and EEG recordings was taken before the injection (i.p) of the convulsing agent, PTZ. The animals were injected with PTZ (100 mg/kg) and about 2 min after injecting PTZ (ictal period) the EEG recording was taken. Then the other series of ABR and EEG recordings were taken at specific times within the post-ictal period. After two weeks the same series of recordings was taken but instead vehicle the animals were injected with vinpocetine (2 mg/kg) 4 hours before the injection of PTZ.

[2] = system: epileptic cortical activity induced by PTZ in guinea pigs; experiment: EEG recordings of cortical activity in PTZ-induced epilepsy; type: in vivo, guinea pig; conditions: ictal (about 2 min) and post-ictal (10, 20, 30, 50 min) periods; vinpocetine 2 mg/kg 4 h before PTZ; FIGS. 3, 4
Experimental: as §1, §2, §5
Vinpocetine inhibits all the changes induced by PTZ on the EEG. […] This dramatic change on the cortical activity induced by PTZ in the anaesthetized animals during convulsions is followed by a typical pattern of cortical activity characterized by rhythmic spike bursts of high amplitude. The duration time of this typical pattern of cortical activity, that is not accompanied by convulsions is referred as the post-ictal period.

[3] = system: epilepsy induced by 4-AP in guinea pigs; experiment: ABR wave parameters (amplitude, latency) in 4-AP-induced epilepsy; type: in vivo, guinea pig; conditions: 100 dB
Experimental: as §1, §2
Determination of ABR wave parameters. The latency and amplitude of each wave component of the ABR elicited by a stimulus of 100 dB with pure tone frequencies of 4 and 8 kHz was measured in all the ABR recordings obtained under the different experimental conditions at the specified times. The latency of each ABR wave (in ms) refers to the time interval between the onset of the auditory stimulus and the positive peak of the wave. The onset of the stimulus is indicated by the vertical arrow at the bottom of the recordings on FIG. 1. The peak amplitude (in μV) of each wave of the ABR is the difference between the positive peak of the wave and the reference baseline (trace between the stimulus and the appearance of the first ABR wave on FIG. 1).
as §4
(§6) Five guinea pigs were entered into the study. One hour after injecting guinea pigs with vehicle (acidified saline used to dissolve vinpocetine) the animals were anaesthetized and a first set of ABR and EEG recordings was taken before the injection (i.p) of the convulsing agent, 4-AP. The animals were injected with 4-AP (2 mg/kg) and about 20 min after injecting 4-AP (ictal period) the EEG recording was taken. Then the other series of ABR and EEG recordings were taken at specific times within the post-ictal period. After two weeks the same series of recordings were repeated but instead vehicle the animals were injected with vinpocetine (2 mg/kg) 1 hour before the injection of 4-AP.

[4] = system: hearing loss induced by 4-AP in guinea pigs; experiment: ABR (auditory) threshold in 4-AP-induced epilepsy; type: in vivo, guinea pig
Experimental: as §1, §2, §3, §4, §6

[5] = system: epileptic cortical activity induced by 4-AP in guinea pigs; experiment: EEG recordings of cortical activity in 4-AP-induced epilepsy; type: in vivo, guinea pig; conditions: ictal (about 20 min) and post-ictal (30, 60, 80 min) periods; vinpocetine 2 mg/kg 1 h before 4-AP; FIGS. 6, 7
Experimental: as §1, §2, §6
Vinpocetine inhibits all the changes induced by 4-AP on the EEG. […] This change on the cortical activity elicited by 4-AP for the ictal period is followed by the post-ictal period characterized by isolated spikes of higher amplitude that appear on the EEG about one hour after the injection of 4-AP. […] The top traces of FIG. 6 show the characteristic EEG recordings taken before the injection of 4-AP in the animals pre-injected with vehicle (a) and in the animals pre-injected with vinpocetine (b). The changes induced by 4-AP on for the ictal period are shown in the second trace on FIG. 6a. In the vinpocetine treated animals 4-AP was unable to induce the ictal activity (second trace on FIG. 6b).

[6] = system: humans; conditions: doses as high as 60 mg/day; Hindmarch et al. 1991; cited from earlier work
[7] = system: presynaptic Na+ channels; conditions: brain isolated nerve endings; Sitges and Nekrassov 1999; Trejo et al. 2001; cited from earlier work
[8] = 4 kHz, 30 min after 4-AP 2 mg/kg i.p., vinpocetine 2 mg/kg or vehicle 1 h before 4-AP
[9] = 4 kHz, 60 min after 4-AP 2 mg/kg i.p., vinpocetine 2 mg/kg or vehicle 1 h before 4-AP
[10] = 8 kHz, 30 min after 4-AP 2 mg/kg i.p., vinpocetine 2 mg/kg or vehicle 1 h before 4-AP
[11] = 8 kHz, 60 min after 4-AP 2 mg/kg i.p., vinpocetine 2 mg/kg or vehicle 1 h before 4-AP

CCOC(=O)C1=C[C@]2(CC)CCCN3CCc4c(n1c1ccccc41)[C@@H]32 [Vinpocetine, ethyl apovincamine-22-oate]
auditory threshold ([1]; 4 kHz, 30 min after PTZ 100 mg/kg i.p., vinpocetine 2 mg/kg or vehicle 4 h before PTZ): 18 ± 1.2 dB | auditory threshold ([1]; 4 kHz, 50 min after PTZ 100 mg/kg i.p., vinpocetine 2 mg/kg or vehicle 4 h before PTZ): 18 ± 1.2 dB | auditory threshold ([1]; 4 kHz, before PTZ injection, 4 h after vinpocetine 2 mg/kg, mean±SEM, 8 animals): 20 ± 1.6 dB | auditory threshold ([1]; 8 kHz, 30 min after PTZ 100 mg/kg i.p., vinpocetine 2 mg/kg or vehicle 4 h before PTZ): 6.0 ± 1.0 dB | auditory threshold ([1]; 8 kHz, 50 min after PTZ 100 mg/kg i.p., vinpocetine 2 mg/kg or vehicle 4 h before PTZ): 6.0 ± 1.0 dB | auditory threshold ([1]; 8 kHz, before PTZ injection, 4 h after vinpocetine 2 mg/kg, mean±SEM, 8 animals): 6.0 ± 1.0 dB | effect on changes on the cortical activity (EEG) induced by PTZ [2]: completely inhibits | latency of the P4 wave of the ABR [3, 8]: 3.37 ± 0.06 ms | latency of the P4 wave of the ABR [3, 9]: 3.54 ± 0.11 ms | latency of the P4 wave of the ABR ([3]; 4 kHz, 80 min after 4-AP 2 mg/kg i.p., vinpocetine 2 mg/kg or vehicle 1 h before 4-AP): 3.56 ± 0.04 ms | latency of the P4 wave of the ABR ([3]; 4 kHz, 100 min after 4-AP 2 mg/kg i.p., vinpocetine 2 mg/kg or vehicle 1 h before 4-AP): 3.43 ± 0.09 ms | latency of the P4 wave of the ABR ([3]; 4 kHz, before 4-AP injection, 1 h after vinpocetine 2 mg/kg, 5 animals): 3.45 ± 0.06 ms | latency of the P4 wave of the ABR [3, 10]: 3.55 ± 0.07 ms | latency of the P4 wave of the ABR [3, 11]: 3.45 ± 0.08 ms | latency of the P4 wave of the ABR ([3]; 8 kHz, 80 min after 4-AP 2 mg/kg i.p., vinpocetine 2 mg/kg or vehicle 1 h before 4-AP): 3.36 ± 0.05 ms | latency of the P4 wave of the ABR ([3]; 8 kHz, 100 min after 4-AP 2 mg/kg i.p., vinpocetine 2 mg/kg or vehicle 1 h before 4-AP): 3.35 ± 0.07 ms | latency of the P4 wave of the ABR ([3]; 8 kHz, before 4-AP injection, 1 h after vinpocetine 2 mg/kg, 5 animals): 3.48 ± 0.04 ms | progressive increase in the amplitude of the P3 wave of the ABR produced by 4-AP ([3]; 8 kHz, vinpocetine 2 mg/kg 1 h before 4-AP, FIG. 5a,b): eliminated | reduction in P4 amplitude produced by 4-AP ([3]; 8 kHz, vinpocetine 2 mg/kg 1 h before 4-AP, FIG. 5c,d): markedly reduced | auditory threshold [4, 8]: 11.3 ± 1.3 dB | auditory threshold [4, 9]: 11.3 ± 1.3 dB | auditory threshold ([4]; 4 kHz, before 4-AP injection, 1 h after vinpocetine 2 mg/kg): 13.8 ± 1.3 dB | auditory threshold [4, 10]: −1.3 ± 2.4 dB | auditory threshold [4, 11]: 0.0 ± 3.5 dB | auditory threshold ([4]; 8 kHz, before 4-AP injection, 1 h after vinpocetine 2 mg/kg): 2.5 ± 1.4 dB | effect on changes on the cortical activity (EEG) induced by 4-AP [5]: completely prevents | tolerability in humans [6]: well tolerated and without contraindications | neurotransmitter release induced by an increase in presynaptic Na+ channels permeability [7]: selectively inhibits

— patent US20070135470A1, “Utilization of vinpocetine to avoid complications in particular those associated to hearing which occur with epilepsy, and treatment thereof” (UNIVERSIDAD NACIONAL AUTONOMA DE MEXICO, priority 2003, published 2007)
